{
  "source": "patent US11884647B2",
  "about": "“Compounds and methods for targeting pathogenic blood vessels” (THE REGENTS OF THE UNIVERSITY OF CALIFORNIA, priority 2019, dated 2024)",
  "tested_on": "tumor endothelial cells (LL/2 lung cancer tumor)",
  "test": "Lung LL2 ex vivo model of tumor angiogenesis",
  "type": "cell-based, mouse",
  "settings": "for cytotoxicity at 10 µM / cytotoxicity at 20 µM / cytotoxicity at 40 µM: Mus musculus, Endothelial cell, 48 h, read-out: Cell death; for Cell death: drug treatment two days",
  "outline": "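Read-out is live/dead fluorescence imaging (fluorescein diacetate green, propidium iodide red, 10 min at 37° C) at 2×, taken e.g. 48 h after drug addition. Fragments of mouse LL2 tumor are cultured in Matrigel with endothelial growth medium, usually 4 days, until new endothelial cells grow out, then treated.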",
  "key": {"[1]": {"settings": "Lung LL2 ex vivo, Conc. 20 μm, (24 hrs)"}},
  "data": [
    {"smiles": "CCOC(=O)c1ccc2ncc(S(=O)(=O)c3ccc(OC)cc3)c(-n3cncn3)c2c1", "note": "[compound 183, ethyl 3-((4-methoxyphenyl)sulfonyl)-4-(1H-1,2,4-triazol-1-yl)quinoline-6-carboxylate]", "values": [
      {"measurement": "cytotoxicity at 10 µM", "result": 100, "unit": "%"}
    ]},
    {"smiles": "CCOC(=O)c1ccc2ncc(S(=O)(=O)c3ccc(CC)cc3)c(-n3nnc4ccccc43)c2c1", "note": "[compound 133, ethyl 4-(1H-benzo[d][1,2,3]triazol-1-yl)-3-((4-ethylphenyl)sulfonyl)quinoline-6-carboxylate]", "values": [
      {"measurement": "cytotoxicity at 20 µM", "result": 10, "unit": "%"}
    ]},
    {"smiles": "CCCCCCCCCCOc1ccc(S(=O)(=O)c2cnc3ccc([S+](C)[O-])cc3c2N2CCC(N3CCC(N4CCOCC4)CC3)CC2)cc1", "note": "(stereo not drawn) [compound 286, 4-(1′-(3-((4-(decyloxy)phenyl)sulfonyl)-6-(methylsulfinyl)quinolin-4-yl)-[1,4′-bipiperidin]-4-yl)morpholine]", "values": [
      {"measurement": "Cell death (24 hrs)", "setting": "[1]", "result": 0, "unit": "%"},
      {"measurement": "Morphology observations (24 hrs)", "setting": "[1]", "result": 0}
    ]},
    {"smiles": "CCCCOc1ccc(S(=O)(=O)c2cnc3ccc(SC)cc3c2N2CCC3C(COCCN3CC(C)C)C2)cc1", "note": "(stereo not drawn) [compound 352, 7-(3-((4-butoxyphenyl)sulfonyl)-6-(methylthio)quinolin-4-yl)-1-isobutyldecahydropyrido[4,3-e][1,4]oxazepine]", "values": [
      {"measurement": "Cell death", "setting": "Lung LL2 ex vivo, Conc. 40 μm", "result": 100, "unit": "%"}
    ]},
    {"smiles": "CCCCCCCCCCCCOc1ccc(S(=O)(=O)c2cnc3ccc([S+](C)[O-])cc3c2N2CCC(N3CCN(CCO)CC3)CC2)cc1F", "note": "(stereo not drawn) [compound 362, 2-(4-(1-(3-((4-(dodecyloxy)-3-fluorophenyl)sulfonyl)-6-(methylsulfinyl)quinolin-4-yl)piperidin-4-yl)piperazin-1-yl)ethanol]", "values": [
      {"measurement": "cytotoxicity at 20 µM", "result": 20, "unit": "%"}
    ]},
    {"smiles": "COc1ccc(S(=O)(=O)c2cnc3cc(OC)c(OC)cc3c2N2CCC(N3CCCC3=O)CC2)cc1", "note": "[compound 321, 1-(1-(6,7-dimethoxy-3-((4-methoxyphenyl)sulfonyl)quinolin-4-yl)piperidin-4-yl)pyrrolidin-2-one]", "values": [
      {"measurement": "cytotoxicity at 40 µM", "result": 40, "unit": "%"}
    ]},
    {"smiles": "CCc1ccc(S(=O)(=O)c2cnc3ccc(OC(F)(F)F)cc3c2N2CCC(N(CC)CC)CC2)cc1", "note": "[compound 103, N,N-diethyl-1-(3-((4-ethylphenyl)sulfonyl)-6-(trifluoromethoxy)quinolin-4-yl)piperidin-4-amine]", "values": [
      {"measurement": "cytotoxicity at 20 µM", "result": 10, "unit": "%"}
    ]},
    {"smiles": "CCc1ccc(S(=O)(=O)c2cnc3ccc(OC(F)(F)F)cc3c2NCCCCCO)cc1", "note": "[compound 104, 5-((3-((4-ethylphenyl)sulfonyl)-6-(trifluoromethoxy)quinolin-4-yl)amino)pentan-1-ol]", "values": [
      {"measurement": "cytotoxicity at 20 µM", "result": 20, "unit": "%"}
    ]},
    {"smiles": "CCCCOc1ccc(S(=O)(=O)c2cnc3ccc(C(=O)OCC)cc3c2N2CCS(=O)(=O)CC2)cc1", "note": "[compound 196, ethyl 3-((4-butoxyphenyl)sulfonyl)-4-(1,1-dioxidothiomorpholino)quinoline-6-carboxylate]", "values": [
      {"measurement": "cytotoxicity at 40 µM", "result": 30, "unit": "%"}
    ]},
    {"smiles": "CCCCOc1ccc(S(=O)(=O)c2cnc3ccc(SC)cc3c2N2CCC(N3CCC(N4CCCCC4)CC3)CC2)cc1", "note": "[compound 231, 4-([1,4′:1′,4″-terpiperidin]-1″-yl)-3-((4-butoxyphenyl)sulfonyl)-6-(methylthio)quinoline]", "values": [
      {"measurement": "cytotoxicity at 40 µM", "result": 100, "unit": "%"}
    ]},
    {"smiles": "CC(C)CCCC(C)CCOc1ccc(S(=O)(=O)c2cnc3ccc([S+](C)[O-])cc3c2N2CCC(N3CCC(N4CCCCC4)CC3)CC2)cc1", "note": "(stereo not drawn) [compound 289, 4-([1,4′:1′,4″-terpiperidin]-1″-yl)-3-((4-((3,7-dimethyloctyl)oxy)phenyl)sulfonyl)-6-(methylsulfinyl)quinoline]", "values": [
      {"measurement": "cytotoxicity at 20 µM", "result": 20, "unit": "%"}
    ]},
    {"smiles": "CCCCCCCCCCCCOc1ccc(S(=O)(=O)c2cnc3ccc([S+](C)[O-])cc3c2N2CCC(N3CCC(N4CCCCC4)CC3)CC2)cc1F", "note": "(stereo not drawn) [compound 363, 4-([1,4′:1′,4″-terpiperidin]-1″-yl)-3-((4-(dodecyloxy)-3-fluorophenyl)sulfonyl)-6-(methylsulfinyl)quinoline]", "values": [
      {"measurement": "cytotoxicity at 20 µM", "result": 30, "unit": "%"}
    ]},
    {"smiles": "CCCCOc1ccc(S(=O)(=O)c2cnc3ccc(SC)cc3c2N2CCC(N3CCN(c4ccc(F)cc4)CC3)CC2)cc1", "note": "[compound 233, 3-((4-butoxyphenyl)sulfonyl)-4-(4-(4-(4-fluorophenyl)piperazin-1-yl)piperidin-1-yl)-6-(methylthio)quinoline]", "values": [
      {"measurement": "cytotoxicity at 40 µM", "result": 5, "unit": "%"}
    ]},
    {"smiles": "CNC(=O)c1ccc2ncc(S(=O)(=O)c3ccc(OC)cc3)c(NC)c2c1", "note": "[compound 360, 3-((4-methoxyphenyl)sulfonyl)-N-methyl-4-(methylamino)quinoline-6-carboxamide]", "values": [
      {"measurement": "Cell death", "setting": "Lung LL2 ex vivo, Conc. 40 μm", "result": 20, "unit": "%"}
    ]},
    {"smiles": "CCCCOc1ccc(S(=O)(=O)c2cnc3ccc(SC)cc3c2N2CCCN(C3CCSCC3)CC2)cc1", "note": "[compound 358, 3-((4-butoxyphenyl)sulfonyl)-6-(methylthio)-4-(4-(tetrahydro-2H-thiopyran-4-yl)-1,4-diazepan-1-yl)quinoline]", "values": [
      {"measurement": "Cell death", "setting": "Lung LL2 ex vivo, Conc. 40 μm", "result": 0, "unit": "%"}
    ]},
    {"smiles": "CCCCOc1ccc(S(=O)(=O)c2cnc3ccc([S+](C)[O-])cc3c2N2CCC(N3CCC(N4CCCCC4)CC3)CC2)cc1", "note": "(stereo not drawn) [compound 237, 4-([1,4′:1′,4″-terpiperidin]-1″-yl)-3-((4-butoxyphenyl)sulfonyl)-6-(methylsulfinyl)quinoline]", "values": [
      {"measurement": "cytotoxicity at 40 µM", "result": 100, "unit": "%"}
    ]},
    {"smiles": "CCCCOc1ccc(S(=O)(=O)c2cnc3ccc([S+](C)[O-])cc3c2N2CCC(N3CCSCC3)CC2)cc1", "note": "(stereo not drawn) [compound 245, 4-(1-(3-((4-butoxyphenyl)sulfonyl)-6-(methylsulfinyl)quinolin-4-yl)piperidin-4-yl)thiomorpholine]", "values": [
      {"measurement": "cytotoxicity at 40 µM", "result": 40, "unit": "%"}
    ]},
    {"smiles": "COc1ccc(S(=O)(=O)c2cnc3cc(OC)c(OC)cc3c2N2CCCN(C3CCSCC3)CC2)cc1", "note": "[compound 329, 6,7-dimethoxy-3-((4-methoxyphenyl)sulfonyl)-4-(4-(tetrahydro-2H-thiopyran-4-yl)-1,4-diazepan-1-yl)quinoline]", "values": [
      {"measurement": "cytotoxicity at 40 µM", "result": 40, "unit": "%"}
    ]},
    {"smiles": "CNC(=O)c1ccc2ncc(S(=O)(=O)c3ccc(OC)cc3)c(N3CCC(N4CCCCC4)CC3)c2c1", "note": "[compound 143, 4-([1,4′-bipiperidin]-1′-yl)-3-((4-methoxyphenyl)sulfonyl)-N-methylquinoline-6-carboxamide]", "values": [
      {"measurement": "Cell death", "setting": "Lung LL2 ex vivo, Conc. 40 μm", "result": 40, "unit": "%"}
    ]},
    {"smiles": "CCCCCCCCCCOc1ccc(S(=O)(=O)c2cnc3ccc([S+](C)[O-])cc3c2N2CCC(N3CCCN(C)CC3)CC2)cc1", "note": "(stereo not drawn) [compound 267, 3-((4-(decyloxy)phenyl)sulfonyl)-4-(4-(4-methyl-1,4-diazepan-1-yl)piperidin-1-yl)-6-(methylsulfinyl)quinoline]", "values": [
      {"measurement": "cytotoxicity at 10 µM", "result": 5, "unit": "%"}
    ]},
    {"smiles": "CCCCOc1ccc(S(=O)(=O)c2cnc3ccc([S+](C)[O-])cc3c2N2CCC(N3CCC(CO)CC3)CC2)cc1", "note": "(stereo not drawn) [compound 240, (1′-(3-((4-butoxyphenyl)sulfonyl)-6-(methylsulfinyl)quinolin-4-yl)-[1,4′-bipiperidin]-4-yl)methanol]", "values": [
      {"measurement": "cytotoxicity at 40 µM", "result": 30, "unit": "%"}
    ]},
    {"smiles": "CCCCOc1ccc(S(=O)(=O)c2cnc3ccc(OC(F)(F)F)cc3c2N2CCSCC2)cc1", "note": "[compound 187, 4-(3-((4-butoxyphenyl)sulfonyl)-6-(trifluoromethoxy)quinolin-4-yl)thiomorpholine]", "values": [
      {"measurement": "cytotoxicity at 40 µM", "result": 30, "unit": "%"}
    ]},
    {"smiles": "CCc1ccc(S(=O)(=O)c2cnc3ccc(OC(F)(F)F)cc3c2NN2CCOCC2)cc1", "note": "[compound 126, N-(3-((4-ethylphenyl)sulfonyl)-6-(trifluoromethoxy)quinolin-4-yl)morpholin-4-amine]", "values": [
      {"measurement": "cytotoxicity at 20 µM", "result": 10, "unit": "%"}
    ]},
    {"smiles": "COc1ccc(S(=O)(=O)c2cnc3ccc(CC#N)cc3c2N2CCC(N3CCCCC3)CC2)cc1", "note": "[compound 115, 2-(4-([1,4′-bipiperidin]-1′-yl)-3-((4-methoxyphenyl)sulfonyl)quinolin-6-yl)acetonitrile]", "values": [
      {"measurement": "Cell death", "setting": "Lung LL2 ex vivo, Conc. 20 μm", "result": 10, "unit": "%"}
    ]},
    {"smiles": "CCCCCCCCCCCCOc1ccc(S(=O)(=O)c2cnc3ccc([S+](C)[O-])cc3c2N2CCC(N3CCC(N4CCN(CCO)CC4)CC3)CC2)cc1", "note": "(stereo not drawn) [compound 340, 2-(4-(1′-(3-((4-(dodecyloxy)phenyl)sulfonyl)-6-(methylsulfinyl)quinolin-4-yl)-[1,4′-bipiperidin]-4-yl)piperazin-1-yl)ethan-1-ol]", "values": [
      {"measurement": "cytotoxicity at 20 µM", "result": 60, "unit": "%"}
    ]},
    {"smiles": "COc1ccc(S(=O)(=O)c2cnc3cc(OC)c(OC)cc3c2N2CCC(=O)N(C)CC2)cc1", "note": "[compound 328, 1-(6,7-dimethoxy-3-((4-methoxyphenyl)sulfonyl)quinolin-4-yl)-4-methyl-1,4-diazepan-5-one]", "values": [
      {"measurement": "cytotoxicity at 40 µM", "result": 30, "unit": "%"}
    ]},
    {"smiles": "CCCCCCCOc1ccc(S(=O)(=O)c2cnc3ccc([S+](C)[O-])cc3c2N2CCN(CCN3CCCC3)CC2)cc1", "note": "(stereo not drawn) [compound 276, 3-((4-(heptyloxy)phenyl)sulfonyl)-6-(methylsulfinyl)-4-(4-(2-(pyrrolidin-1-yl)ethyl)piperazin-1-yl)quinoline]", "values": [
      {"measurement": "cytotoxicity at 20 µM", "result": 100, "unit": "%"}
    ]},
    {"smiles": "CCCCCCCCCCCCOc1ccc(S(=O)(=O)c2cnc3ccc([S+](C)[O-])cc3c2N2CCC(N3CCC(N4CCC(O)CC4)CC3)CC2)cc1F", "note": "(stereo not drawn) [compound 372, 1″-(3-((4-(dodecyloxy)-3-fluorophenyl)sulfonyl)-6-(methylsulfinyl)quinolin-4-yl)-[1,4′:1′,4″- terpiperidin]-4-ol]", "values": [
      {"measurement": "cytotoxicity at 20 µM", "result": 20, "unit": "%"}
    ]},
    {"smiles": "CNC(=O)c1ccc2ncc(S(=O)(=O)c3ccc(OC)cc3)c(N3CCC(N4CCCC4CO)CC3)c2c1", "note": "(stereo not drawn) [compound 336, 4-(4-(2-(hydroxymethyl)pyrrolidin-1-yl)piperidin-1-yl)-3-((4-methoxyphenyl)sulfonyl)-N-methylquinoline-6-carboxamide]", "values": [
      {"measurement": "cytotoxicity at 40 µM", "result": 0, "unit": "%"}
    ]},
    {"smiles": "CCCCOc1ccc(S(=O)(=O)c2cnc3ccc(SC)cc3c2N2CCC(N3CCN(CCO)CC3)CC2)cc1", "note": "[compound 230, 2-(4-(1-(3-((4-butoxyphenyl)sulfonyl)-6-(methylthio)quinolin-4-yl)piperidin-4-yl)piperazin-1-yl)ethan-1-ol]", "values": [
      {"measurement": "Cell death", "setting": "Lung LL2 ex vivo, Conc. 40 μm", "result": 100, "unit": "%"}
    ]},
    {"smiles": "CCCCOc1ccc(S(=O)(=O)c2cnc3ccc([S+](C)[O-])cc3c2N2CCC(N3CCCCC3)CC2)cc1", "note": "(stereo not drawn) [compound 167, 4-([1,4′-bipiperidin]-1′-yl)-3-((4-butoxyphenyl)sulfonyl)-6-(methylsulfinyl)quinoline]", "values": [
      {"measurement": "cytotoxicity at 20 µM", "result": 40, "unit": "%"}
    ]},
    {"smiles": "CCCCCCCCCCOc1ccc(S(=O)(=O)c2cnc3ccc([S+](C)[O-])cc3c2N2CCC(N3CCC(O)(c4ccccc4)CC3)CC2)cc1", "note": "(stereo not drawn) [compound 270, 1′-(3-((4-(decyloxy)phenyl)sulfonyl)-6-(methylsulfinyl)quinolin-4-yl)-4-phenyl-[1,4′-bipiperidin]-4-ol]", "values": [
      {"measurement": "cytotoxicity at 20 µM", "result": 50, "unit": "%"}
    ]}
  ]
}
